# Experimental data: PubChem BioAssay (NCI)
#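 How tested: cells in 96-well plates exposed to compound for 48 hours at five concentrations. Abbreviation: GI50, concentration required for 50% inhibition of growth. TGI is the concentration that stops growth completely.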
# Legend:
# Test in all cases: NCI tumour cell line growth inhibition, 48 h
# COLO 205 colon = system: COLO 205 colon
# HCT-116 colon = system: HCT-116 colon
# HT29 colon = system: HT29 colon
# SF-268 CNS = system: SF-268 CNS
# SN12C renal = system: SN12C renal
# SK-MEL-5 melanoma = system: SK-MEL-5 melanoma
# OVCAR-5 ovarian = system: OVCAR-5 ovarian
# HCC-2998 colon = system: HCC-2998 colon
# SW-620 colon = system: SW-620 colon
# HL-60(TB) leukemia = system: HL-60(TB) leukemia
SMILES,TGI (COLO 205 colon) [µM],TGI (HCT-116 colon) [µM],TGI (HT29 colon) [µM],TGI (SF-268 CNS) [µM],TGI (SN12C renal) [µM],TGI (SK-MEL-5 melanoma) [µM],TGI (OVCAR-5 ovarian) [µM],TGI (HCC-2998 colon) [µM],TGI (SW-620 colon) [µM],TGI (HL-60(TB) leukemia) [µM],GI50 (COLO 205 colon) [µM],GI50 (HCT-116 colon) [µM],GI50 (HT29 colon) [µM],GI50 (SF-268 CNS) [µM],GI50 (SN12C renal) [µM],GI50 (SK-MEL-5 melanoma) [µM],GI50 (OVCAR-5 ovarian) [µM],GI50 (HL-60(TB) leukemia) [µM],GI50 (HCC-2998 colon) [µM],GI50 (SW-620 colon) [µM]
O=C1CN2C(Cl)(Cl)C2(c2ccccc2)c2cc(Cl)ccc2N1CC(F)(F)F (configuration not stated),39.3,49.3,48.1,> 100,30.6,33.2,> 100,35.9,> 100,,,,,,,,,,,
CC1=C[C@]2(CC(C)C3C(CC4(C)C5CCC6C(C)(C)C(=O)CC[C@@]67C[C@@]57CC[C@]34C)O2)OC1=O (some centres not stated),> 100,> 100,> 100,> 100,> 100,20.2,> 100,> 100,> 100,> 100,,,,,,,,,,
CCOc1ccc(/C=C/[N+](=O)[O-])cc1,15.5,3.55,5.27,28.6,28.3,18.5,19.8,3.94,11.9,49,4.71,1.93,2.32,14.1,14.7,5.78,6.31,8.83,1.82,3.15
O=C(Nc1ccc(Cl)cc1)/C(Cc1cccc[n+]1[O-])=N\Nc1ccc([N+](=O)[O-])cc1[N+](=O)[O-],> 100,> 100,,> 100,> 100,> 100,> 100,> 100,> 100,> 100,,,,,,,,,,
COc1c2c(cc3c(CCc4ccccc4)cc(=O)oc13)CCC(C)(C)O2,> 100,> 100,> 100,> 100,> 100,> 100,> 100,> 100,> 100,> 100,,,,,,,,,,
CN1C2C=C(c3ccccc3)CC1CC2 (configuration not stated),> 100,> 100,> 100,> 100,> 100,> 100,> 100,> 100,> 100,> 100,,,,,,,,,,
CCOc1ccc2c(ccc(/C=C\c3cc(C)c4cccnc4c3O)[n+]2C)c1,5.82,25,> 32.8,28.3,15.5,3.48,16.7,> 100,28,1.05,,,,,,,,,,
Nc1ncnc2c1ncn2C1CCC(CO)O1 (configuration not stated),> 100,> 100,> 67.2,> 87.7,> 100,> 100,> 100,> 77.4,> 100,> 100,,,,,,,,,,
CO/N=C1/c2sccc2[C@H](NC(=O)C(F)(F)F)[C@@H]1O,> 100,> 100,> 100,> 100,> 100,> 100,> 100,> 100,> 100,> 100,,,,,,,,,,
O=C1Nc2ccccc2Nc2nc3cccccc-3c21,> 100,> 100,> 100,> 100,> 100,> 100,> 100,> 100,> 100,> 100,,,,,,,,,,
COc1ccc(/C=N/NC(=O)NCCCN(C)C)cc1,,> 100,> 100,> 100,> 100,> 100,,,> 100,> 100,,,,,,,,,,
O=C(Nc1nc2ccc([N+](=O)[O-])cc2[n+]([O-])n1)C(F)(F)F,> 100,60.1,> 100,> 100,> 100,25.3,> 100,> 100,> 100,34.9,,,,,,,,,,
[C-]#[O+].[Cl][Sn]([Cl])[Cl].[Cl][Sn]([Cl])[Cl].[Pt].c1ccncc1,> 100,> 100,> 100,> 100,> 100,> 100,> 100,> 100,> 100,> 74,,,,,,,,,,
c1ccc2c(c1)nc1n2CSC1,> 100,,> 100,> 100,> 100,> 100,,,> 100,> 100,,,,,,,,,,
CN1CCN(Cc2ccc(NC(=O)c3ccc(C#N)c(C#Cc4cnc(N)c5ncccc45)c3)cc2C(F)(F)F)CC1,> 100,,,,5.43,83.1,3.34,> 100,,> 100,4.02,,,,2.19,6.67,1.71,14.5,3.89,
CC(/C=C/c1ccc([N+](=O)[O-])o1)=N/N1CC(CN2CCOCC2)OC1=O (configuration not stated),29.8,56.4,> 100,51.9,> 100,28.6,> 100,> 100,77.3,55.7,,,,,,,,,,
CC(C)=CCc1c(C)cc2cc3c(c(O)c2c1O)C(O)=CC(=O)C3(CC=C(C)C)C/C=C(\C)CO (configuration not stated),80.1,72.3,81.4,85.4,76.8,50.9,84.6,88.6,78.9,51.3,,,,,,,,,,
COc1cc2c3c(n(CCN(C)C)c(=O)c2cc1OC)-c1cc2c(cc1C3=O)OCO2,> 100,19.3,> 73.4,> 100,> 100,22.1,> 100,> 100,> 100,> 35.8,,,,0.677,4.38,1.21,> 100,1.02,3.5,2.86
Cc1nc2ccccc2c(=O)n1CC(=O)O,> 100,> 100,> 100,> 100,> 100,> 100,> 100,> 100,> 100,> 100,,,,,,,,,,
O=C(O)c1cc(=O)[nH]c(=S)[nH]1,> 100,> 100,> 100,> 100,> 100,> 100,> 100,> 100,> 100,> 100,,,,,,,,,,
CC1(C)CCc2cc3c(-c4ccccc4)cc(=O)oc3cc2O1,> 100,,> 100,> 100,> 100,> 100,,,> 100,> 100,,,,,,,,,,
CCCCN(CCCC)CCCCNc1c(C)cnc2cc(Cl)ccc12,> 100,42,57.8,85.3,> 100,,39.1,29.4,56.8,,,,,,,,,,,
CCOP(=O)(OCC)C(Cc1ccc(OC)c(OC)c1)N=C(c1ccccc1)c1ccccc1 (configuration not stated),38.1,> 100,> 100,> 100,> 100,55.9,> 100,52.4,> 100,51.9,,,,,,,,,,
Cc1ccc(S(=O)(=O)Oc2cc(S(=O)(=O)O)cc3cc(S(=O)(=O)O)cc(N)c23)cc1,> 100,> 100,> 100,> 100,> 100,> 100,> 100,> 100,> 100,> 100,,,,,,,,,,
CCN(CC)CCCC(Nc1c2ccc(Cl)cc2nc2ccc(OC)cc12)c1ccc(F)cc1 (configuration not stated),4.53,3.48,9.87,5.33,4.68,3.15,5.6,3.25,3.65,4.02,2.05,1.84,2.7,2.28,2.03,1.7,2.04,1.91,1.74,1.79
Cc1cccc2c(N)c3cccc(C(=O)NCCN(C)C)c3nc12,0.229,2.38,,2.41,0.457,0.269,0.723,0.218,,0.0427,,,,,,,,,,
Cc1ccc(/C(=C/C=C(C#N)C#N)Sc2cc(Cl)ccc2Cl)cc1,20.4,5.06,> 100,43.9,13.9,26.4,19.4,,22.5,,,,,,,,,,,
